The test system of one experiment is L929 normal cells. Description: MTT cell viability assay, L929 normal cells. The class given is cell-based, murine. The following applies: L929 normal cell line, 48 h. As for the experimental part: (§1) The murine sarcoma-180 tumor cells (S180) (ATCC# TIB-66) and normal murine fibroblast cells (L-929) (ATCC# CCL-1) were cultured in suspension in RPMI 1640 and DMEM media (Sigma Chemical Co., MO), respectively, supplemented with 10% fetal calf serum, 100 µg/mL penicillin, and 100 µg/mL streptomycin. The cultures were incubated in a humidified incubator (Thermo Scientific) at 37°C with 5% CO2.
(§2) The cytotoxic effects of the amino acid ruthenium complexes were evaluated using an MTT assay with S180 tumor cells and L929 normal cells as described previously. Briefly, 1.0×10^5 S180 cells and 2.0×10^4 L929 cells were plated in 96-well tissue culture plates and treated with different concentrations of amino acid ruthenium complexes (0.2–200 µM) for 48 h. After treatment, 10 µL of MTT (5 mg mL^−1) was added to each well, and the plates were incubated at 37°C for an additional 3 h. The purple formazan crystals were dissolved in 50 µL of SDS, and the absorbance was determined at 545 nm using a Stat Fax 2100 microplate reader (Awareness Technology, Palm City, FL, USA). The cell viability was calculated as follows: viability (%) = (absorbance of the treated wells)/(absorbance of the control wells) ×100. The IC50 (complex concentration (µM) that results in a 50% reduction in cellular viability) was obtained from dose-response curves using GraphPad Prism 4.02 for Windows (GraphPad Software, San Diego, CA, USA).

A further experiment relates to S180 tumor cells. Put plainly: MTT cell viability assay, S180 tumor cells. The note with it: S180 tumor cell line, 48 h. It is filed as cell-based, murine. The protocol:
as §1, §2
On the technique in general: Formazan colour is commonly taken as a measure of viable cells.

The subject of another experiment is S180 cells. On the set-up: method as in earlier work. The note with it: previous studies; cited from earlier work.
The subject of another experiment is pBR322 plasmid DNA. On the set-up: method as in PMID 21875763. The following applies: previous study; cited from earlier work.

As usually defined, the IC50 is the concentration that gives 50% inhibition.

`C[C@H](N)C(=O)[O-].F[P-](F)(F)(F)(F)F.[Ru+2].c1ccc(-c2ccccn2)nc1.c1ccc(P(CCCCP(c2ccccc2)c2ccccc2)c2ccccc2)cc1` [Complex 5, [Ru(ala)(bipy)(dppb)]PF6]: the IC50 in the experiment on L929 normal cells came out at 97.8 ± 8.99 µM; with S180 tumor cells, 50.2 ± 1.03 µM.
Regarding `N.N.N.N.[Cl-].[Cl][Ru+][Cl]` [cis-[RuCl2(NH3)4]Cl], the “numbers of Annexin V-positive S180 cells” value with S180 cells is “increased the numbers of Annexin V-positive S180 cells”.
In the case of `N.N.[Cl][Pt][Cl]` [Cisplatin, cisplatin, reference compound], the IC50 in the experiment on L929 normal cells came out at 29.1 ± 1.88 µM; with S180 tumor cells it was 64.83 ± 0.17 µM.
The like results for `F[P-](F)(F)(F)(F)F.F[P-](F)(F)(F)(F)F.N[C@@H](CC(=O)O)C(=O)O.[Ru+2].c1ccc(-c2ccccn2)nc1.c1ccc(P(CCCCP(c2ccccc2)c2ccccc2)c2ccccc2)cc1` [Complex 4, [Ru(aspac)(bipy)(dppb)](PF6)2] were, in that order, 107 ± 8.98 µM and 42.2 ± 3.98 µM.
For `F[P-](F)(F)(F)(F)F.O=C1[O][Ru-4]23([n+]4ccccc41)([n+]1ccccc1-c1cccc[n+]12)[P+](c1ccccc1)(c1ccccc1)CCCC[P+]3(c1ccccc1)c1ccccc1` [[Ru(pic)(dppb(bipy)]PF6], the “effect on plasmid DNA (AFM images)” value in the experiment with pBR322 plasmid DNA was “strong aggregation of plasmid DNA”.
`CSCC[C@H](N)C(=O)[O-].F[P-](F)(F)(F)(F)F.[Ru+2].c1ccc(-c2ccccn2)nc1.c1ccc(P(CCCCP(c2ccccc2)c2ccccc2)c2ccccc2)cc1` [Complex 1, [Ru(met)(bipy)(dppb)]PF6]: the IC50 in the experiment with L929 normal cells was 27.4 ± 3.32 µM; in the experiment with S180 tumor cells it was 22.5 ± 3.4 µM.
Regarding `CC(C)C[C@H](N)C(=O)[O-].F[P-](F)(F)(F)(F)F.[Ru+2].c1ccc(-c2ccccn2)nc1.c1ccc(P(CCCCP(c2ccccc2)c2ccccc2)c2ccccc2)cc1` [Complex 3, [Ru(leu)(bipy)(dppb)]PF6], the results for the IC50 with L929 normal cells and in the experiment with S180 tumor cells were 47.1 ± 5.94 µM and 38.2 ± 7 µM, respectively.

Values taken from publication PMC4201456, “Cytoxicity and Apoptotic Mechanism of Ruthenium(II) Amino Acid Complexes in Sarcoma-180 Tumor Cells” (PLoS ONE, 2014).
